Measured values from the supplement of paper PMC10307832.

Tests used:
Test in all cases: relative viability (nuclei count vs DMSO), 5 days (fraction); higher = more cells survive
[1] = compound: CN1CCN(CC1)C2=CC(=C(C=C2)NC3=NC=C4C(=N3)N(C5=CC=CC=C5C(=O)N4C)C)OC [XMD8-85] + Cc1nc(Nc2ncc(C(=O)Nc3c(C)cccc3Cl)s2)cc(N2CCN(CCO)CC2)n1 [Dasatinib] (partner 0.075 µM)
In short: (§1)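 Lung cancer cell lines were seeded in 1536-well plates and dosed by pin tool the next day, with either a single drug or a fixed anchor-drug dose combined with five library-drug doses (not always all listed) spaced in √10 steps. Five days later, one step fixed the cells and stained their nuclei (final 0.05% Triton X-100, 1% formaldehyde, 1 ug/ml Hoechst), and nuclei were counted on 4× images. Relative viability is the nuclei count in treated wells divided by the count in vehicle wells, and each value is the median of duplicate plates.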

[2] = compound: O=C(O)C(Cc1ccccc1[N+](=O)[O-])=NNc1nc(-c2ccc(Cl)c(Cl)c2)cs1 (mixture of isomers) [4EGI-1] + COc1cc2c(Oc3ccc(NC(=O)C4(C(=O)Nc5ccc(F)cc5)CC4)cc3F)ccnc2cc1OCCCN1CCOCC1 [Foretinib] (partner 0.25 µM)
In short: as §1

[3] = compound: O=C(O)C(Cc1ccccc1[N+](=O)[O-])=NNc1nc(-c2ccc(Cl)c(Cl)c2)cs1 (mixture of isomers) [4EGI-1] + N=C(N)NC(=N)NCCc1ccccc1 [Phenformin] (partner 250 µM)
In short: as §1

[4] = compound: CN1CCN(CC1)C2=CC(=C(C=C2)NC3=NC=C4C(=N3)N(C5=CC=CC=C5C(=O)N4C)C)OC [XMD8-85] + Cc1nc(NC(=O)N2CCC[C@H]2C(N)=O)sc1-c1ccnc(C(C)(C)C(F)(F)F)c1 [Alpelisib] (partner 2 µM)
In short: as §1

HARA
relative viability ([1]; first compound 0.08 µM): 0.268
relative viability ([1]; first compound 0.253 µM): 0.314
relative viability ([1]; first compound 0.8 µM): 0.281
relative viability ([1]; first compound 2.53 µM): 0.261
relative viability ([1]; first compound 8 µM): 0.238
relative viability ([2]; first compound 0.5 µM): 0.979
relative viability ([2]; first compound 1.581 µM): 0.806
relative viability ([2]; first compound 5 µM): 0.965
relative viability ([2]; first compound 15.81 µM): 0.76
relative viability ([2]; first compound 50 µM): 0.175
relative viability ([3]; first compound 0.5 µM): 0.593
relative viability ([3]; first compound 1.581 µM): 0.506
relative viability ([3]; first compound 5 µM): 0.497
relative viability ([3]; first compound 15.81 µM): 0.41
relative viability ([3]; first compound 50 µM): 0.376
relative viability ([4]; first compound 0.08 µM): 0.932
relative viability ([4]; first compound 0.253 µM): 0.675
relative viability ([4]; first compound 0.8 µM): 0.911
relative viability ([4]; first compound 2.53 µM): 0.445
relative viability ([4]; first compound 8 µM): 0.27

UMC-11
relative viability ([1]; first compound 0.08 µM): 0.418
relative viability ([1]; first compound 0.253 µM): 0.437
relative viability ([1]; first compound 0.8 µM): 0.556
relative viability ([1]; first compound 2.53 µM): 0.512
relative viability ([1]; first compound 8 µM): 0.335
relative viability ([2]; first compound 0.5 µM): 1.1
relative viability ([2]; first compound 1.581 µM): 1.09
relative viability ([2]; first compound 5 µM): 1.12
relative viability ([2]; first compound 15.81 µM): 1.09
relative viability ([2]; first compound 50 µM): 0.39
relative viability ([3]; first compound 0.5 µM): 0.384
relative viability ([3]; first compound 1.581 µM): 0.365
relative viability ([3]; first compound 5 µM): 0.334
relative viability ([3]; first compound 15.81 µM): 0.28
relative viability ([3]; first compound 50 µM): 0.237
relative viability ([4]; first compound 0.08 µM): 0.954
relative viability ([4]; first compound 0.253 µM): 0.931
relative viability ([4]; first compound 0.8 µM): 1
relative viability ([4]; first compound 2.53 µM): 0.939
relative viability ([4]; first compound 8 µM): 0.387

NCI-H2170
relative viability ([1]; first compound 0.08 µM): 0.574
relative viability ([1]; first compound 0.253 µM): 0.562
relative viability ([1]; first compound 0.8 µM): 0.526
relative viability ([1]; first compound 2.53 µM): 0.564
relative viability ([1]; first compound 8 µM): 0.548
relative viability ([2]; first compound 0.5 µM): 0.951
relative viability ([2]; first compound 1.581 µM): 0.958
relative viability ([2]; first compound 5 µM): 0.74
relative viability ([2]; first compound 15.81 µM): 1.01
relative viability ([2]; first compound 50 µM): 0.582
relative viability ([3]; first compound 0.5 µM): 0.419
relative viability ([3]; first compound 1.581 µM): 0.452
relative viability ([3]; first compound 5 µM): 0.426
relative viability ([3]; first compound 15.81 µM): 0.333
relative viability ([3]; first compound 50 µM): 0.274
relative viability ([4]; first compound 0.08 µM): 0.759
relative viability ([4]; first compound 0.253 µM): 0.812
relative viability ([4]; first compound 2.53 µM): 0.816
relative viability ([4]; first compound 8 µM): 0.495

BEN
relative viability ([1]; first compound 0.08 µM): 0.322
relative viability ([1]; first compound 0.253 µM): 0.332
relative viability ([1]; first compound 0.8 µM): 0.38
relative viability ([1]; first compound 2.53 µM): 0.27
relative viability ([1]; first compound 8 µM): 0.301
relative viability ([2]; first compound 0.5 µM): 0.694
relative viability ([2]; first compound 1.581 µM): 0.474
relative viability ([2]; first compound 5 µM): 0.781
relative viability ([2]; first compound 15.81 µM): 0.753
relative viability ([2]; first compound 50 µM): 0.524
relative viability ([3]; first compound 0.5 µM): 0.278
relative viability ([3]; first compound 1.581 µM): 0.267
relative viability ([3]; first compound 5 µM): 0.281
relative viability ([3]; first compound 15.81 µM): 0.241
relative viability ([3]; first compound 50 µM): 0.269
relative viability ([4]; first compound 0.08 µM): 0.871
relative viability ([4]; first compound 0.253 µM): 1.06
relative viability ([4]; first compound 0.8 µM): 0.966
relative viability ([4]; first compound 2.53 µM): 0.662
relative viability ([4]; first compound 8 µM): 0.553

EKVX
relative viability ([1]; first compound 0.08 µM): 0.518
relative viability ([1]; first compound 0.253 µM): 0.545
relative viability ([1]; first compound 0.8 µM): 0.478
relative viability ([1]; first compound 2.53 µM): 0.536
relative viability ([1]; first compound 8 µM): 0.475
relative viability ([2]; first compound 0.5 µM): 1.08
relative viability ([2]; first compound 1.581 µM): 0.121
relative viability ([2]; first compound 5 µM): 0.925
relative viability ([2]; first compound 15.81 µM): 0.686
relative viability ([2]; first compound 50 µM): 0.815
relative viability ([3]; first compound 0.5 µM): 0.223
relative viability ([3]; first compound 1.581 µM): 0.213
relative viability ([3]; first compound 5 µM): 0.234
relative viability ([3]; first compound 15.81 µM): 0.189
relative viability ([3]; first compound 50 µM): 0.215
relative viability ([4]; first compound 0.08 µM): 0.776
relative viability ([4]; first compound 0.253 µM): 0.996
relative viability ([4]; first compound 0.8 µM): 0.935
relative viability ([4]; first compound 2.53 µM): 0.986
relative viability ([4]; first compound 8 µM): 0.899

NCI-H1755
relative viability ([1]; first compound 0.08 µM): 0.409
relative viability ([1]; first compound 0.253 µM): 0.432
relative viability ([1]; first compound 0.8 µM): 0.434
relative viability ([1]; first compound 2.53 µM): 0.482
relative viability ([1]; first compound 8 µM): 0.353
relative viability ([2]; first compound 0.5 µM): 0.953
relative viability ([2]; first compound 1.581 µM): 0.854
relative viability ([2]; first compound 5 µM): 0.872
relative viability ([2]; first compound 15.81 µM): 0.815
relative viability ([2]; first compound 50 µM): 0.704
relative viability ([3]; first compound 0.5 µM): 0.699
relative viability ([3]; first compound 1.581 µM): 0.636
relative viability ([3]; first compound 5 µM): 0.646
relative viability ([3]; first compound 15.81 µM): 0.625
relative viability ([3]; first compound 50 µM): 0.397
relative viability ([4]; first compound 0.08 µM): 0.981
relative viability ([4]; first compound 0.253 µM): 0.949
relative viability ([4]; first compound 0.8 µM): 0.954
relative viability ([4]; first compound 2.53 µM): 1.04
relative viability ([4]; first compound 8 µM): 0.896

NCI-H2126
relative viability ([1]; first compound 0.08 µM): 0.601
relative viability ([1]; first compound 0.253 µM): 0.625
relative viability ([1]; first compound 0.8 µM): 0.613
relative viability ([1]; first compound 2.53 µM): 0.562
relative viability ([1]; first compound 8 µM): 0.417
relative viability ([2]; first compound 0.5 µM): 1.34
relative viability ([2]; first compound 1.581 µM): 1.55
relative viability ([2]; first compound 5 µM): 1.28
relative viability ([2]; first compound 15.81 µM): 1.07
relative viability ([2]; first compound 50 µM): 0.785
relative viability ([3]; first compound 0.5 µM): 0.553
relative viability ([3]; first compound 5 µM): 0.569
relative viability ([3]; first compound 15.81 µM): 0.488
relative viability ([3]; first compound 50 µM): 0.463
relative viability ([4]; first compound 0.08 µM): 0.628
relative viability ([4]; first compound 0.253 µM): 0.767
relative viability ([4]; first compound 0.8 µM): 0.814
relative viability ([4]; first compound 2.53 µM): 0.776
relative viability ([4]; first compound 8 µM): 0.724
